Measured values from PubChem BioAssay (NCI).
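Assay format: 96-well plates, 48-hour exposure. At the TGI there is no net growth.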

Columns and labels:
Test in all cases: NCI-60 cell line screen, 48 h
HT29 colon = tested on: HT29 colon
HCT-116 colon = tested on: HCT-116 colon
NCI/ADR-RES ovarian = tested on: NCI/ADR-RES ovarian
DU-145 prostate = tested on: DU-145 prostate
MDA-N = tested on: MDA-N
NCI-H522 lung = tested on: NCI-H522 lung
A498 renal = tested on: A498 renal
NCI-H226 lung = tested on: NCI-H226 lung
SR leukemia = tested on: SR leukemia
HCT-15 colon = tested on: HCT-15 colon
K-562 leukemia = tested on: K-562 leukemia
HS 578T breast = tested on: HS 578T breast
LOX IMVI melanoma = tested on: LOX IMVI melanoma
SF-295 CNS = tested on: SF-295 CNS
OVCAR-3 ovarian = tested on: OVCAR-3 ovarian
SF-268 CNS = tested on: SF-268 CNS
HL-60(TB) leukemia = tested on: HL-60(TB) leukemia
COLO 205 colon = tested on: COLO 205 colon
MOLT-4 leukemia = tested on: MOLT-4 leukemia
RXF 393 renal = tested on: RXF 393 renal
SN12C renal = tested on: SN12C renal
CAKI-1 renal = tested on: CAKI-1 renal
U251 CNS = tested on: U251 CNS
OVCAR-4 ovarian = tested on: OVCAR-4 ovarian
SW-620 colon = tested on: SW-620 colon
UACC-257 melanoma = tested on: UACC-257 melanoma
EKVX NSCLC = tested on: EKVX NSCLC
KM12 colon = tested on: KM12 colon
NCI-H23 lung = tested on: NCI-H23 lung
IGROV1 ovarian = tested on: IGROV1 ovarian
HOP-92 NSCLC = tested on: HOP-92 NSCLC
MCF7 breast = tested on: MCF7 breast
MDA-MB-435 = tested on: MDA-MB-435
TK-10 renal = tested on: TK-10 renal
OVCAR-5 ovarian = tested on: OVCAR-5 ovarian
786-0 renal = tested on: 786-0 renal
SK-MEL-5 melanoma = tested on: SK-MEL-5 melanoma
SK-OV-3 ovarian = tested on: SK-OV-3 ovarian
HOP-62 NSCLC = tested on: HOP-62 NSCLC
SNB-19 CNS = tested on: SNB-19 CNS
SK-MEL-2 melanoma = tested on: SK-MEL-2 melanoma
MDA-MB-231 breast = tested on: MDA-MB-231 breast
RPMI-8226 leukemia = tested on: RPMI-8226 leukemia
M14 melanoma = tested on: M14 melanoma
ACHN renal = tested on: ACHN renal
A549 NSCLC = tested on: A549 NSCLC
CCRF-CEM leukemia = tested on: CCRF-CEM leukemia
BT-549 breast = tested on: BT-549 breast
SF-539 CNS = tested on: SF-539 CNS
PC-3 prostate = tested on: PC-3 prostate
NCI-H460 lung = tested on: NCI-H460 lung
SK-MEL-28 melanoma = tested on: SK-MEL-28 melanoma
MALME-3M melanoma = tested on: MALME-3M melanoma
OVCAR-8 ovarian = tested on: OVCAR-8 ovarian

Measured: TGI

CN(C)CCCNC(=S)S
> 100 µM: all assays above
